Measured values as given in patent publication US20230393140A1, “BINDING ASSAYS INVOLVING A PLURALITY OF SYNTHETIC COMPOUNDS, TARGETS, AND COUNTER TARGETS” (SRI International, priority 2020, published 2023).
Where two headings read alike, the source gives them in different places. Marks after values point to notes of the source that are not given here. Values belong to the compound of their own block, whether it stands above or below them. Numbered stars: 1 amine (or outer) side, 2 acyl side, 3 side chain; on linkers, the order of the positions; unused ones are H or OH. Square brackets hold non-standard residues; d marks the D form. Ends that are not written are not given here. Peptide text beside a SMILES is read from it. * marks the point of attachment. 5FAM = O=C1OC2(c3ccc(O)cc3Oc3cc(O)ccc32)c2ccc(C(=O)*)cc21; NHCH2C6H4(4-CH2CONH2) = NC(=O)Cc1ccc(CN*)cc1; X1 = O=C(Cc1ccc(CN[*:1])cc1)[*:2]

Experiments:
[1] = target: T1, K-Ras (Homo sapiens, UniProt P01116, G12V); assay: MST binding affinity of resynthesized NNP hits to K-Ras
T1 construct: purchased Cytoskeleton Inc. CS-RS04
Procedure, shortened: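 K-Ras G12V was GTP-loaded (EDTA exchange, 750 μM GTP, 2 h at 30° C, then MgCl2) and labeled with maleimide-647 dye. MST was run at room temperature in 20 mM HEPES pH 7.4, 150 mM NaCl, 10 mM MgCl2, 0.05% Tween-20, 1 mM DTT. Incubations lasted 15, 30 and 45 min; triplicate data fitted for affinity.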

[2] = target: T2, K-Ras-Raf interaction (Homo sapiens, UniProt P01116, G12V); assay: K-Ras/Raf inhibition assay (MST competition binding); conditions: NNP at 1 μM pre-incubated with K-Ras 15 minutes at room temperature, then Raf titration
T2 construct: purchased Cytoskeleton Inc. (K-Ras); Jena Bioscience (Raf-RBD) CS-RS04; PR-305
Method: This was tested on an MST competition binding assay (see FIG. 11A).
Loading was performed according to the following protocol: The 200 μM stock solution of the target protein was diluted to 10 μM in 20 mM HEPES pH 8.0, 150 mM NaCl, 10 mM MgCl2, 1 mM TCEP, 0.05% Tween-20 (total volume 110 μL). 10 μL were set aside for later labeling quality control. EDTA pH 8.0 (stock concentration 10 mM) was added to the protein solution to a final concentration of 80 μM. GTP (stock concentration 50 mM) was added to the protein solution to a final concentration of 750 μM. The solution was incubated at 30° C. for 2 hours (PCR tube) and then placed on ice for 2 minutes. MgCl2 was added to the protein solution to a final concentration of 100 mM. The resulting protein solution was buffer exchanged into the buffer required in the labeling kit for labeling. […] All the other target molecules (TNFα, IL-6, IL-6R and ASGPR) were used as received without any additional treatment.
Loading of K-Ras with the GTP was performed according to the protocol detailed above (Activation of K-Ras by GTP loading). After the GTP loading the resulting protein solution was buffer exchanged into 100 mM HEPES pH 6.5, 5 mM MgCl2, 50 mM NaCl, 1 mM TCEP.

[3] = target: T3, K-Ras-CF555 versus Raf-AF647 (Homo sapiens, UniProt P01116, G12V); assay: On-bead FAST/ADM competition screen, MFI of target and counter target; assay type: binding; conditions: hit bead in primary competition screen
T3 construct: purchased Cytoskeleton Inc. (K-Ras); Jena Bioscience (Raf-RBD) CS-RS04; PR-305

[4] = target: T4, cRaf/K-Ras (G12V) PPI (Homo sapiens, UniProt P01116, G12V); assay: K-Ras-cRaf HTRF-based PPI profiling; assay type: biochemical; conditions: for blank corrected HTRF: raw data, compounds without fluorescein;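 on blank corrected HTRF: background is the signal of wells with all components except cRaf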
T4 construct: b-Kras G12V (GppNHp) (aa 2-169); biotin (b-
Procedure, shortened: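 K-Ras(G12V) pre-incubated 30 min at room temperature with compound in 20 mM HEPES pH 7.4, 150 mM NaCl, 5 mM MgCl2, 1 mM DTT, 0.005% NP40, 1% DMSO, then cRaf added. HTRF read via anti-GST-Tb cryptate/streptavidin-XL665. % binding is relative to DMSO controls; curves fitted only if activity at top concentration fell below 65%.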

[5] = tested on: biotinylated GST; assay: Interference check with biotinylated GST and detection mix
Description: Table 20 below provides an interference check on the synthetic compounds using biotinylated GST, which was used with the detection mix to check for compound effect on fluorescence.

[6] = tested on: HepG2 cells (high ASGPR expressing); assay: ASGPR uptake assay, flow cytometry, HepG2; assay type: cell-based, human; conditions: fluorescein-labeled compounds, flow cytometry, 2 hours
Method: (§1) The HEK293T (human embryonic kidney cells) and human hepatoma HepG2 cells were grown according to the protocols provided by the American Type Culture Collection (ATCC). When cells reached cell were seeded at ˜1.5×10^5 cells/well in 24-well culture plate for the uptake assay. After at least 16 hours of culture to allow cell attach and equilibrate, the compound treatment was set up for the uptake assay.
(§2) The fluorescein-labeled NNPs or fluorescein-labeled N-acetylgalactosamine (GalNAc) recognizing ASGRPR were added to wells at indicated concentrations and incubated for 2 hours. Two plates were prepared for each treatment condition, one serving as 4 degrees C. no internalization control that was kept on ice during incubation, while the second plate was incubated at 37 degrees C. to allow for energy dependent internalization. Following the incubation period, all plates were placed on ice and washed three times with ice-cold PBS/3% BSA/2 mM EDTA and then lifted with trypsin. Cells were transferred to a 96-well round bottom plates in FACS buffer. Cells were then analyzed by flow cytometry using LSR-HJ with HTS sampler (BD Biosciences, San Jose, CA, USA). Data (mean fluorescence intensities) and further analyzed using Flowjo software (BD Biosciences, San Jose, CA, USA). The internalized fraction was expressed as the difference between the corresponding 4 degrees C. and 37 degrees C. MFIs as previously described.

[7] = tested on: HEK293 cells (non-expressing); assay: ASGPR uptake assay, flow cytometry, HEK293; assay type: cell-based, human; conditions: fluorescein-labeled compounds
Method: as §1
as §2, with “MFIs as previously described.” left out

[8] = assay type: in vitro ADME; conditions: 17 h
Method: For human plasma stability, lyophilized human plasma was reconstituted in sterile water for injection, aliquoted into 200 uL aliquots and stored frozen at −80 degrees C. prior to the stability studies. For the stability studies three aliquots per NNP were thawed at room temperature. An additional set of three aliquots for a positive control peptide (Angiotensin I) were also thawed. The incubations for the plasma stability were initiated by mixing 2 uL of a 2 mM stock solution of NNP IL6R-87-8 or positive control in DMSO with the 200 uL thawed plasma aliquot. After briefly vortex-mixing, 50 uL zero-time-point samples were removed, mixed with 50 uL of water and 400 uL of acetonitrile and frozen on dry ice until all time point samples had been collected. The samples were incubated at 37 degrees C. with samples removed and water/acetonitrile added at 1 hour, 3 hours, and 17 hours. Proteins were precipitated by centrifuging the samples at 17,000 G, 4 degrees C. for 1 hour. The supernatants were removed and concentrated in a centrifugal vacuum concentrator (GeneVac Genie II) at 45 degrees C. until the volume had been reduced to around 60 uL. […]

[9] = read-out: KD of K-Ras hits by MST
[10] = read-out: KD (nM) [95% conf. int], MST, NNP1 library hit, target K-Ras, one-site binding model

Compound: CC(C)C[C@@H](NC(=O)c1ccc2c(c1)C(=O)OC21c2ccc(O)cc2Oc2cc(O)ccc21)C(=O)N1CCC[C@@H]1C(=O)N[C@H](CCC(=O)O)C(=O)N[C@H](CO)C(=O)N[C@@H](Cc1ccccc1)C(=O)NCc1ccc(CC(=O)NCC(=O)N[C@@H](C(=O)N2CCC[C@@H]2C(=O)N[C@H](CCCNC(=N)N)C(=O)N[C@@H](C)C(=O)NCc2ccc(CC(=O)N3CCC[C@@H]3C(=O)N[C@H](CO)C(=O)N[C@H](CCC(=O)O)C(=O)N[C@H](CCCNC(=N)N)C(=O)NCC(=O)NCc3ccc(CC(=O)N4CCC[C@@H]4C(=O)N[C@H](CCCCN)C(=O)N[C@H](Cc4ccc(O)cc4)C(=O)N[C@H](CCCNC(=N)N)C(=O)N[C@@H](Cc4ccccc4)C(=O)NCc4ccc(CC(=O)N[C@H](CCCNC(=N)N)C(=O)N[C@H](Cc5ccc(O)cc5)C(=O)N[C@@H](C(=O)N[C@H](CCC(=O)O)C(=O)N[C@@H](C)C(=O)NCc5ccc(CC(=O)N[C@H](Cc6ccc(O)cc6)C(=O)N6CCC[C@@H]6C(=O)N[C@H](CCCNC(=N)N)C(=O)N[C@H](CCC(=O)O)C(=O)NCC(=O)NCc6ccc(CC(N)=O)cc6)cc5)[C@H](C)O)cc4)cc3)cc2)C(C)C)cc1 [KRAS-1-4] (5FAM-[dL][dP][dE][dS]F[X1]G[dV][dP][dR]A[X1][dP][dS][dE][dR]G[X1][dP][dK][dY][dR]F[X1][dR][dY][dT][dE]A[X1][dY][dP][dR][dE]G-{NHCH2C6H4(4-CH2CONH2)})
Kd [1, 9]: 36 nM | Inhibition of K-Ras-Raf PPI [2]: no inhibition | MFI ratio of the target (K-Ras-CF555) to the counter target (Raf-AF647) for the hit beads [3]: 1.89

Compound: CC(C)C[C@H](NC(=O)[C@@H](C)NC(=O)[C@@H](CCC(=O)O)NC(=O)[C@H](NC(=O)[C@@H](CCCCN)NC(=O)Cc1ccc(CNC(=O)[C@H](C)NC(=O)[C@@H](CCCNC(=N)N)NC(=O)[C@H]2CCCN2C(=O)[C@H](NC(=O)CNC(=O)Cc2ccc(CNC(=O)[C@H](Cc3ccccc3)NC(=O)[C@@H](CO)NC(=O)[C@@H](CCC(=O)O)NC(=O)[C@H]3CCCN3C(=O)[C@@H](CC(C)C)NC(=O)c3ccc4c(c3)C(=O)OC43c4ccc(O)cc4Oc4cc(O)ccc43)cc2)C(C)C)cc1)[C@H](C)O)C(=O)NCc1ccc(CC(=O)N[C@H](Cc2ccc(O)cc2)C(=O)N[C@@H](C(=O)N2CCC[C@@H]2C(=O)N[C@H](CCCNC(=N)N)C(=O)N[C@@H](C)C(=O)NCc2ccc(CC(=O)N3CCC[C@@H]3C(=O)NCC(=O)N[C@H](CCCNC(=N)N)C(=O)N[C@H](Cc3c[nH]c4ccccc34)C(=O)NCC(=O)NCc3ccc(CC(=O)NCC(=O)N[C@H](Cc4c[nH]c5ccccc45)C(=O)N[C@H](Cc4c[nH]cn4)C(=O)N[C@H](CCCNC(=N)N)C(=O)N[C@@H](C)C(=O)NCc4ccc(CC(N)=O)cc4)cc3)cc2)[C@H](C)O)cc1 [KRAS-1-13] (5FAM-[dL][dP][dE][dS]F[X1]G[dV][dP][dR]A[X1][dK][dT][dE][dA]L[X1][dY][dT][dP][dR]A[X1][dP]G[dR][dW]G[X1]G[dW][dH][dR]A-{NHCH2C6H4(4-CH2CONH2)})
Kd ([1]; K-Ras, compound with fluorescein on N-term, read-out: KD[nM] in MST (with fluorescein on N-term)): 30 nM | Kd [1, 10]: 30 nM | Kd [1, 9]: 30 nM | Inhibition of K-Ras-Raf PPI [2]: partial inhibition | HillSlope ([4]; curve fit of % binding, K-Ras G12V 30 nM, GST-cRaf 10 nM): −0.821 | blank corrected HTRF ([4]; conc. 1.00E−05): 3798 | blank corrected HTRF ([4]; conc. 1.11E−06): 8379 | blank corrected HTRF ([4]; conc. 1.52E−09): 13665 | blank corrected HTRF ([4]; conc. 3.33E−06): 3957 | blank corrected HTRF ([4]; conc. 3.70E−07): 9542 | blank corrected HTRF ([4]; conc. 4.12E−08): 14025 | blank corrected HTRF ([4]; conc. 4.57E−09): 13413 | blank corrected HTRF ([4]; conc. 5.08E−10): 5044 | % signal compared to DMSO ([5]; assay conc. 0.000508053 μM): 101.8% | % signal compared to DMSO ([5]; assay conc. 0.001524158 μM): 103.1% | % signal compared to DMSO ([5]; assay conc. 0.004572474 μM): 102.8% | % signal compared to DMSO ([5]; assay conc. 0.013717421 μM): 101.9% | % signal compared to DMSO ([5]; assay conc. 0.041152263 μM): 102.1% | % signal compared to DMSO ([5]; assay conc. 0.12345679 μM): 100.3% | % signal compared to DMSO ([5]; assay conc. 0.37037037 μM): 100.4% | % signal compared to DMSO ([5]; assay conc. 1.111111111 μM): 94.53% | % signal compared to DMSO ([5]; assay conc. 3.333333333 μM): 80.42% | % signal compared to DMSO ([5]; assay conc. 10 μM): 62.38* %

Compound: CC(C)C[C@@H](NC(=O)[C@@H](CCC(=O)O)NC(=O)[C@@H](C)NC(=O)Cc1ccc(CNC(=O)[C@H](Cc2ccccc2)NC(=O)[C@@H](CCCNC(=N)N)NC(=O)[C@@H](Cc2ccc(O)cc2)NC(=O)[C@@H](CCCCN)NC(=O)[C@H]2CCCN2C(=O)Cc2ccc(CNC(=O)CNC(=O)[C@@H](CCCNC(=N)N)NC(=O)[C@@H](CCC(=O)O)NC(=O)[C@@H](CO)NC(=O)[C@H]3CCCN3C(=O)Cc3ccc(CNC(=O)[C@H](C)NC(=O)[C@@H](CCCNC(=N)N)NC(=O)[C@H]4CCCN4C(=O)[C@H](NC(=O)CNC(=O)Cc4ccc(CNC(=O)[C@H](Cc5ccccc5)NC(=O)[C@@H](CCC(=O)O)NC(=O)[C@@H](Cc5c[nH]cn5)NC(=O)[C@H]5CCCN5C(=O)[C@@H](CO)NC(=O)c5ccc6c(c5)C(=O)OC65c6ccc(O)cc6Oc6cc(O)ccc65)cc4)C(C)C)cc3)cc2)cc1)C(=O)N[C@H](CCCCN)C(=O)N[C@@H](C)C(=O)NCc1ccc(CC(=O)NCC(=O)N[C@H](Cc2c[nH]c3ccccc23)C(=O)N[C@H](Cc2c[nH]cn2)C(=O)N[C@H](CCCNC(=N)N)C(=O)N[C@@H](C)C(=O)NCc2ccc(CC(N)=O)cc2)cc1 [KRAS-1-14] (5FAM-[dS][dP][dH][dE]F[X1]G[dV][dP][dR]A[X1][dP][dS][dE][dR]G[X1][dP][dK][dY][dR]F[X1][dA][dE][dL][dK]A[X1]G[dW][dH][dR]A-{NHCH2C6H4(4-CH2CONH2)})
Kd [1, 10]: 155 nM | Internalization (cell uptake) in HepG2 [6]: minimal uptake | Internalization (cell uptake) in HEK293 [7]: minimal uptake

Stability in human plasma [8]: completely degraded within four hours
Compound: DRVYIHPFHL [Angiotensin I, reference compound]
